These results are taken from patent US20070249686A1, “Modulators of Crth-2 Receptor Activity for the Treatment of Prostaglandin D2 Mediated Diseases” (ASTRAZENECA AB, priority 2004, published 2007).

This assay concerns the target T1, CRTh2 (Homo sapiens, UniProt Q9Y5Y4).
T1 construct: expressed in transfected cells; host or cells: HEK cells (membrane preparation)
T1 sequence (Q9Y5Y4 1-395): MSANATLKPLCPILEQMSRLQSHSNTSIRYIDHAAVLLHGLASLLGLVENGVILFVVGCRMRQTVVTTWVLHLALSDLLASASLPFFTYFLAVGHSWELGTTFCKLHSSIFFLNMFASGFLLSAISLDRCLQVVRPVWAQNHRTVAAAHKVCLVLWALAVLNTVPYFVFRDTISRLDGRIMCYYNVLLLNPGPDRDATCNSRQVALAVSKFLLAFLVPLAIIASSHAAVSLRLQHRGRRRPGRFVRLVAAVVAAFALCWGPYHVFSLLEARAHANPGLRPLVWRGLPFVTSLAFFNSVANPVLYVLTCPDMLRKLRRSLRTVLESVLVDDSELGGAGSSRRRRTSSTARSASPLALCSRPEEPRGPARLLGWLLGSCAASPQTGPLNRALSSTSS
The experiment in a line: Ligand binding assay: [3H]PGD2 binding to membranes of HEK cells expressing rhCRTh2/Gα16 (SPA beads). To be noted: [3H]PGD2 displacement, HEK cell membranes containing CRTh2, SPA, 2 hours at room temperature. Here is the method: [hu 3H]PGD2 was purchased from Perkin Elmer Life Sciences with a specific activity of 100-210 Ci/mmol. All other chemicals were of analytical grade.
HEK cells expressing rhCRTh2/Gα16 were routinely maintained in DMEM containing 10% Foetal Bovine Serum (HyClone), 1 mg/ml geneticin, 2 mM L-glutamine and 1% non-essential amino acids. For the preparation of membranes, the adherent transfected HEKcells were grown to confluence in two layer tissue culture factories (Fisher, catalogue number TKT-170-070E). Maximal levels of receptor expression were induced by addition of […] sodium butyrate for the last 18 hours of culture. The adherent cells were washed once with phosphate buffered saline (PBS, 50 ml per cell factory) and detached by the addition of 50 ml per cell factory of ice-cold membrane homogenisation buffer [20 mM HEPES (pH 7.4), 0.1 mM dithiothreitol, 1 mM EDTA, 0.1 mM phenyl methyl sulphonyl fluoride and 100 μg/ml bacitracin]. […] The final pellet was re-suspended in 4 ml of membrane homogenisation buffer per cell factory used and the protein content determined. […]
All assays were performed in Corning clear bottomed, white 96-well NBS plates (Fisher). […] (The optimum coating concentrations were determined for each batch of membranes) The beads were pelleted by centrifugation (800×g for 7minutes at 4° C.), washed once with assay buffer (50 mM HEPES pH 7.4 containing 5 mM magnesium chloride) and finally re-suspended in assay buffer at a bead concentration of 10 mg/ml.
Each assay contained 20 μl of 6.25 nM [^3H]PGD2, 20 μl membrane saturated SPA beads both in assay buffer and 10 μl of compound solution or 13,14-dihydro-15-keto prostaglandin D2 (DK-PGD2, for determination of non-specific binding, Cayman chemical company). […] The assay plate was incubated at room temperature for 2 hours and counted on a Wallac Microbeta liquid scintillation counter (1 minute per well).

The compound `CS(=O)(=O)c1ccc(-c2cc(C(F)(F)F)ccc2CCC(=O)O)cc1C(F)(F)F` [Example 31, 3-[4′-(Methylsulfonyl)-3′,5-bis(trifluoromethyl)biphenyl-2-yl]propanoic acid] gave a half-maximal inhibitory concentration (IC50) of 39.8 nM. This counts as double-digit nanomolar.
With `CCS(=O)(=O)c1ccc(-c2nc(C)ccc2OCC(=O)O)c(C)c1` [Example 11, ({2-[4-(Ethylsulfonyl)-2-methylphenyl]-6-methylpyridin-3-yl}oxy)acetic acid] the figure was 63.1 nM; with `Cc1nn(S(=O)(=O)N(C)C)cc1-c1cc(C(F)(F)F)ccc1O[C@@H](C)C(=O)O` [Example 22, (2S)-2-[2-{1-[(Dimethylamino)sulfonyl]-3-methyl-1H-pyrazol-4-yl}-4-(trifluoromethyl)phenoxy]propanoic acid], 10 nM.

Broadly, the IC50 is the concentration that gives 50% inhibition. Read a high IC50 as a need for much substance.
